How the values were obtained:
L1210/C15 cells = assay: L1210/C15 cell culture growth inhibition (overproduces TS 45-fold); format: cell-based
Description: Cell counts after 48 hours of incubation were obtained by Coulter counting.

L1210 cells = assay: L1210 cell culture growth inhibition; format: cell-based; settings: Mus musculus, 48 hours, read-out: L1210 ID50
Description: Cells in the log phase of growth were diluted to about 5×10^4 /ml and duplicate 5ml aliquots were added to 50 ml tissue culture flasks containing the appropriate additions (diluted in RPMI and sterilised by Millipore filtration). Cell counts after 48 hours of incubation were obtained by Coulter counting.

[1] = tested on: de novo thymidylate synthesis in L1210 cells; assay: Incorporation of 3H dUrd into acid-precipitable material in L1210 cells; format: cell-based
Description: L1210 cells were used at a concentration of 10^5 /ml. Incubation at 37° C. was in complete RPMI tissue culture medium plus or minus drugs for the lengths of time indicated on the graphs. After this time ^3 H dUrd was added at a concentration of 2 uCi/ml (about 0.2 uM). Three 1 ml aliquots were removed after 20 minutes, placed on ice and mixed with 1 ml of ice-cold phosphate buffered saline (PBS). Precipitation onto glass-fibre discs was performed by trichloroacetic acid washing followed by PBS. […] This is an indirect measurement of de novo thymidylate synthesis in whole cells. […] These concentrations are 10 times the ID50 values.

[2] = molecular target: T1, Thymidylate synthetase (TS) (Mus musculus, UniProt P07607); assay: Thymidylate synthetase (TS) inhibition, 3H release assay; format: biochemical; settings: for TS IRP (inverse relative potency, I50 test compound/I50 CB3717): relative to CB3717
T1 construct: A 50,000 g supernatant was prepared from a TS over-producing (45-fold) L1210 cell line; endogenous in cells; host or cells: L1210 (TS over-producing subline, 45-fold), 50,000 g supernatant
T1 sequence (P07607 whole entry): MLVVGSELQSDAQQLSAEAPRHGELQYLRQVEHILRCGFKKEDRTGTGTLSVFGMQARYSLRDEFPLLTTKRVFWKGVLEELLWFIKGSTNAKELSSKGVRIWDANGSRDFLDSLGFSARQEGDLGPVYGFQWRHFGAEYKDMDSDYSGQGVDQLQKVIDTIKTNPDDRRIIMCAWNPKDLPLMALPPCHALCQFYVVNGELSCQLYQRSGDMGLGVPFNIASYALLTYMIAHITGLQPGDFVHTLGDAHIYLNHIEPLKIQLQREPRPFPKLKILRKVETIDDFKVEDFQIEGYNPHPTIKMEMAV
Description: Each compound was dissolved in 0.15M NaHCO3. Thymidylate synthetase was assayed by a ^3 H release method. A 50,000 g supernatant was prepared from a TS over-producing (45-fold) L1210 cell line that was developed in this Institute. The preparation buffer was 0.05M potassium phosphate/0.01M 2-mercaptoethanol, pH 7.4. […] The reaction mixture contained a total of 25 umoles of phosphate. Incubation time was for 1 hour at 37° C.
The results are tabulated below (Table 5). The I50 was defined as the inhibitor concentration necessary to reduce the activity of TS by 50%.

Row | Compound | IC50 (L1210 cells) [nM] | TS IRP (inverse relative potency, I50 test compound/I50 CB3717) [2] | other results
1 | Cc1c(CNc2ccc(C(=O)N[C@@H](CCC(=O)O)C(=O)O)cc2)ccc2nc(N)nc(N)c12 [CB3703, 5CH35,8-dideazaaminopterin] |  |  | resistance of L1210/C15 cells (L1210/C15 cells): not resistant
2 | Nc1nc2ccc(CNc3ccc(C(=O)N[C@@H](CCC(=O)O)C(=O)O)cc3)cc2c(=O)[nH]1 [CB3705, 5,8-dideazafolic acid] | 5000 |  | 3H dUrd incorporation ([1]; 10 times the ID50 concentration): did not produce rapid suppression; 3H dUrd incorporation ([1]; over 2 hours at the ID50 concentration (5 uM)): did not significantly effect
3 | O=C(O)CC[C@H](NC(=O)c1ccc(NCc2ccc3nc[nH]c(=O)c3c2)cc1)C(=O)O [CB3816, N-(4-(((3,4-dihydro-4-oxo-6-quinazolinyl)methyl)amino)benzoyl)-L-glutamic acid] | 700 | 1136 | 
4 | CCN(Cc1ccc2nc[nH]c(=O)c2c1)c1ccc(C(=O)N[C@@H](CCC(=O)O)C(=O)O)cc1 [CB3822, N-(4-(N-((3,4-dihydro-4-oxo-6-quinazolinyl)methyl)ethylamino)benzoyl)-L-glutamic acid] | 2600 | 26 | 
5 | CN(Cc1ccc2nc[nH]c(=O)c2c1)c1ccc(C(=O)N[C@@H](CCC(=O)O)C(=O)O)cc1 [CB3824, N-(4-(N-((3,4-dihydro-4-oxo-6-quinazolinyl)methyl)methylamino)benzoyl)-L-glutamic acid] | 1100 | 53 | 
6 | C=CCN(Cc1ccc2nc[nH]c(=O)c2c1)c1ccc(C(=O)N[C@@H](CCC(=O)O)C(=O)O)cc1 [CB3826, N-(4-(N-((3,4-dihydro-4-oxo-6-quinazolinyl)methyl)prop-2-enylamino)benzoyl)-L-glutamic acid] | 1700 | 56 | 
7 | C#CCN(Cc1ccc2nc[nH]c(=O)c2c1)c1ccc(C(=O)N[C@@H](CCC(=O)O)C(=O)O)s1 [CB3866, N-(5-(N-((3,4-dihydro-4-oxo-6-quinazolinyl)methyl)prop-2-ynylamino)thien-2-oyl)-L-glutamic acid] |  | 85 | IC50 ([2]; TS from TS over-producing L1210 line, 200 uM (±)-L-5,10-CH2FH4, 1 hour at 37° C, read-out: TS I50): 1700 nM
8 | CN(Cc1cnc2nc(N)nc(N)c2n1)c1ccc(C(=O)N[C@@H](CCC(=O)O)C(=O)O)cc1 [methotrexate] |  |  | resistance of L1210/C15 cells (L1210/C15 cells): not resistant

From patent publication US5236927A, “Anti-cancer quinazoline derivatives” (National Research Development Corporation, priority 1985, dated 1993)
